Measurements as given in the supplement of paper PMC7021759.
± gives the standard deviation of the averaged measurements.

Test system: SK-N-MM (SKNMM-MYCN, doxycycline-inducible MYCN)
Test: area under dose-response curve (CellTiter-Glo viability normalised to plate controls) (AUC (arbitrary units)); higher = more loss of viability; extreme values may be limits of the assay
How it was run: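 Compounds were pin-transferred as 10-point 1:3 dilution series (890-fold stock dilution) onto SK-N-MM cells with doxycycline-inducible MYCN, plated at 1250 cells/100 μL in 96-well plates and switched about 24 h after plating to medium with or without doxycycline two days before dosing. Dosing was repeated on day 4, and CellTiter-Glo luminescence was read 3 or 8 days after drugging. Area under the dose-response curve came from log2 signals normalised to the positive and negative controls on each plate.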

[1] = MYCN induction (doxycycline): +doxycycline (MYCN induced), time after drugging: 3 days
[2] = MYCN induction (doxycycline): +doxycycline (MYCN induced), time after drugging: 8 days
[3] = MYCN induction (doxycycline): no doxycycline (MYCN not induced), time after drugging: 3 days
[4] = MYCN induction (doxycycline): no doxycycline (MYCN not induced), time after drugging: 8 days

N#CCNC(=O)c1ccc(-c2ccnc(Nc3ccc(N4CCOCC4)cc3)n2)cc1
area under dose-response curve [1]: 40.7 | area under dose-response curve [2]: 79.9 | area under dose-response curve [3]: 0 | area under dose-response curve [4]: 42

C[C@H]1[C@H](OC(=O)CCC(=O)O)O[C@@H]2O[C@@]3(C)CC[C@H]4[C@H](C)CC[C@@H]1[C@@]24OO3 [ARTESUNATE]
area under dose-response curve [1]: 46.2 | area under dose-response curve [2]: 60 | area under dose-response curve [3]: 25.7 | area under dose-response curve [4]: 25.9

COc1cc2c(cc1-c1c(C)noc1C)ncc1[nH]c(=O)n([C@H](C)c3ccccn3)c12 [I-BET151]
area under dose-response curve [1]: 10.5 | area under dose-response curve [2]: 46.3 | area under dose-response curve [3]: 14.6 | area under dose-response curve [4]: 36.3

COc1cc(CCc2cc(NC(=O)c3ccc(N4CC(C)NC(C)C4)cc3)n[nH]2)cc(OC)c1 (stereo unspecified) [AZD4547]
area under dose-response curve [1]: 2.86 | area under dose-response curve [2]: 3.53 | area under dose-response curve [3]: 2.67 | area under dose-response curve [4]: 3.59

Cc1cc(C2CCCCC2)n(O)c(=O)c1 [CICLOPIROX]
area under dose-response curve [1]: 0 | area under dose-response curve [2]: 97.9 | area under dose-response curve [3]: 15.5 | area under dose-response curve [4]: 41.6

N#CC[C@H](C1CCCC1)n1cc(-c2ncnc3[nH]ccc23)cn1 [RUXOLITINIB]
area under dose-response curve [1]: 27.6 | area under dose-response curve [2]: 121 | area under dose-response curve [3]: 22.3 | area under dose-response curve [4]: 100

COc1cc2c(Oc3ccc(NC(=O)C4(C(=O)Nc5ccc(F)cc5)CC4)cc3F)ccnc2cc1OCCCN1CCOCC1 [FORETINIB]
area under dose-response curve [1]: 167 | area under dose-response curve [2]: 170 | area under dose-response curve [3]: 144 | area under dose-response curve [4]: 140

CN(C)CCCNC(=O)c1ccc(-c2cc(O)c3ncccc3c2)cc1 [ML324]
area under dose-response curve [1]: 16.5 | area under dose-response curve [2]: 109 | area under dose-response curve [3]: 4.85 | area under dose-response curve [4]: 68.6

Nc1ncn([C@H]2C[C@H](O)[C@@H](CO)O2)c(=O)n1 [DECITABINE]
area under dose-response curve [1]: 4.2 | area under dose-response curve [2]: 169 | area under dose-response curve [3]: 0.521 | area under dose-response curve [4]: 67.4

O=C(NC1CCNCC1)c1n[nH]cc1NC(=O)c1c(Cl)cccc1Cl [AT-7519]
area under dose-response curve [1]: 48.9 | area under dose-response curve [2]: 113 | area under dose-response curve [4]: 65.7

O=c1[nH]c(=O)n([C@H]2C[C@H](O)[C@@H](CO)O2)cc1/C=C/Br [BRIVUDINE]
area under dose-response curve [1]: 0.716 | area under dose-response curve [2]: 11.1 | area under dose-response curve [3]: 0 | area under dose-response curve [4]: 0.883

Cc1oncc1C(=O)Nc1ccc(C(F)(F)F)cc1 [LEFLUNOMIDE]
area under dose-response curve [1]: 0 | area under dose-response curve [2]: 5.53 | area under dose-response curve [3]: 0 | area under dose-response curve [4]: 16.7

Cc1sc2c(c1C)C(c1ccc(Cl)cc1)=N[C@@H](CC(N)=O)c1nnc(C)n1-2 [CPI-203]
area under dose-response curve [1]: 2.86 | area under dose-response curve [2]: 38.6 | area under dose-response curve [3]: 8.36 | area under dose-response curve [4]: 30.9

CC(C)C[C@H](NC(=O)[C@H](CCc1ccccc1)NC(=O)CN1CCOCC1)C(=O)N[C@@H](Cc1ccccc1)C(=O)N[C@@H](CC(C)C)C(=O)[C@@]1(C)CO1 [CARFILZOMIB]
area under dose-response curve [1]: 295 | area under dose-response curve [2]: 404 | area under dose-response curve [3]: 286 | area under dose-response curve [4]: 398

COc1cc2ncnc(Nc3ccc(F)c(Cl)c3)c2cc1OCCCN1CCOCC1 [GEFITINIB]
area under dose-response curve [1]: 80.1 | area under dose-response curve [2]: 0 | area under dose-response curve [3]: 93.7 | area under dose-response curve [4]: 93.8

O=C(CCCCCCNC(=O)c1cnc(N(c2ccccc2)c2ccccc2)nc1)NO [ROCILINOSTAT]
area under dose-response curve [1]: 43.9 | area under dose-response curve [2]: 94.7 | area under dose-response curve [3]: 20.4 | area under dose-response curve [4]: 76.4

N[C@H](CCC(=O)N[C@@H](Cc1c[nH]c2ccccc12)C(=O)O)C(=O)O [GOLOTIMOD]
area under dose-response curve [2]: 0 | area under dose-response curve [3]: 0 | area under dose-response curve [4]: 12.7

COc1cccc2c1C(=O)c1c(O)c3c(c(O)c1C2=O)C[C@@](O)(C(=O)CO)C[C@@H]3O[C@H]1C[C@H](N)[C@H](O)[C@H](C)O1 [DOXORUBICIN]
area under dose-response curve [1]: 135 | area under dose-response curve [2]: 295 | area under dose-response curve [3]: 104 | area under dose-response curve [4]: 224

O=C(NOC[C@H](O)CO)c1ccc(F)c(F)c1Nc1ccc(I)cc1F
area under dose-response curve [1]: 28.9 | area under dose-response curve [2]: 92.1 | area under dose-response curve [3]: 21.5 | area under dose-response curve [4]: 84.4

CC[C@@H]1C(=O)N(C)c2cnc(Nc3ccc(C(=O)NC4CCN(C)CC4)cc3OC)nc2N1C1CCCC1 [BI-2536]
area under dose-response curve [1]: 85.3 | area under dose-response curve [2]: 213 | area under dose-response curve [3]: 65.4 | area under dose-response curve [4]: 92.1

CS(=O)(=O)CCNCc1ccc(-c2ccc3ncnc(Nc4ccc(OCc5cccc(F)c5)c(Cl)c4)c3c2)o1 [LAPATINIB]
area under dose-response curve [1]: 0 | area under dose-response curve [2]: 0 | area under dose-response curve [3]: 0 | area under dose-response curve [4]: 0

Nc1nc(Cl)nc2c1ncn2[C@H]1C[C@H](O)[C@@H](CO)O1 [CLADRIBINE]
area under dose-response curve [1]: 51.7 | area under dose-response curve [2]: 225 | area under dose-response curve [3]: 35.7 | area under dose-response curve [4]: 110

Cc1cc(Nc2ncc(Cl)c(Nc3ccccc3S(=O)(=O)C(C)C)n2)c(OC(C)C)cc1C1CCNCC1 [CERITINIB]
area under dose-response curve [1]: 175 | area under dose-response curve [2]: 168 | area under dose-response curve [3]: 172 | area under dose-response curve [4]: 170

O=C(c1ccc(F)c(F)c1Nc1ccc(I)cc1F)N1CC(O)([C@@H]2CCCCN2)C1 [COBIMETINIB]
area under dose-response curve [2]: 145 | area under dose-response curve [3]: 51.1 | area under dose-response curve [4]: 104

CCN(CC)CCCC(C)Nc1c2ccc(Cl)cc2nc2ccc(OC)cc12 (stereo unspecified) [QUINACRINE]
area under dose-response curve [1]: 2.07 | area under dose-response curve [2]: 146 | area under dose-response curve [3]: 0 | area under dose-response curve [4]: 149

CC[C@]1(O)C[C@H]2CN(CCc3c([nH]c4ccccc34)[C@@](C(=O)OC)(c3cc4c(cc3OC)N(C=O)[C@H]3[C@@](O)(C(=O)OC)[C@H](OC(C)=O)[C@]5(CC)C=CCN6CC[C@]43[C@@H]65)C2)C1 [VINCRISTINE]
area under dose-response curve [1]: 185 | area under dose-response curve [2]: 253 | area under dose-response curve [3]: 89.2 | area under dose-response curve [4]: 146

Nc1nc2[nH]cnc2c(=S)[nH]1 [THIOGUANINE]
area under dose-response curve [1]: 26.6 | area under dose-response curve [2]: 54.3 | area under dose-response curve [3]: 10.2 | area under dose-response curve [4]: 21.2

C=C1C[C@@H]2CC[C@@]34C[C@H]5O[C@H]6[C@@H](O3)[C@H]3O[C@H](CC[C@@H]3O[C@H]6[C@H]5O4)CC(=O)C[C@@H]3[C@@H](OC)[C@@H](C[C@H](O)CN)O[C@H]3C[C@H]3O[C@@H](CC[C@@H]1O2)C[C@@H](C)C3=C [ERIBULIN]
area under dose-response curve [1]: 0 | area under dose-response curve [2]: 0.398 | area under dose-response curve [3]: 0 | area under dose-response curve [4]: 52.7

CC(=O)OC[C@H]1O[C@@H]([S-])[C@H](OC(C)=O)[C@@H](OC(C)=O)[C@@H]1OC(C)=O.CCP(CC)CC.[Au+] [AURANOFIN]
area under dose-response curve [1]: 199 | area under dose-response curve [2]: 223 | area under dose-response curve [3]: 188 | area under dose-response curve [4]: 208

COc1cc(Nc2ncc3c(n2)-c2ccc(Cl)cc2C(c2c(F)cccc2OC)=NC3)ccc1C(=O)O [ALISERTIB]
area under dose-response curve [1]: 51.1 ± 1.1 | area under dose-response curve [2]: 126 ± 21 | area under dose-response curve [3]: 15.2 ± 0.59 | area under dose-response curve [4]: 69.4 ± 30

CO[C@@H]1[C@H](N(C)C(=O)c2ccccc2)C[C@H]2O[C@]1(C)n1c3ccccc3c3c4c(c5c6ccccc6n2c5c31)C(=O)NC4 [MIDOSTAURIN]
area under dose-response curve [1]: 59.7 | area under dose-response curve [2]: 122 | area under dose-response curve [3]: 65.6 | area under dose-response curve [4]: 127
